The values below come from patent publication US10259777B2, “(E)-3-(3,4-dihydroxyphenyl)-N-(prop-2-yn-1-yl)acrylamide for treatment of neurodegenerative diseases” (THE UNIVERSITY OF HONG KONG, priority 2015, dated 2019).

Some results are limits rather than exact numbers.

Series [1] concerns PC12 cells. Briefly: NGF-induced neurite outgrowth (neuritogenic activity) in PC12 cells. The class given is cell-based, rat. Particulars: 72 hours. On the procedure: The neuritogenic potential of PACA was verified by the induction of the main neuronal biomarkers (i.g., β3-tubulin, MAP-2 and GAP43). (A) Representative images for the potentiation of NGF-induced neurite outgrowth in PC12 cells by PACA. PC12 cells were treated with NGF (2 ng/ml) and PACA, alone or in combination. The cells were stained with neurite outgrowth staining kit and imaged under a fluorescence microscope. (B) Quantification of neurite outgrowth in Panel A. Following the staining of neurites, the cells bearing neurites longer than 20 μm were counted under a fluorescence microscope. **, p<0.01 (sample vs NGF alone). (C) Western blot analysis of neuronal biomarkers. The cells were treated with NGF and PACA, alone or in combination, whereas the control cells were treated with vehicle for 72 hours. The cellular proteins were extracted and detected by Western blot analysis for the expression of neuron marker. GAPDH was detected as the control of protein loading.
The neuritogenic activity of PACA was evaluated in rat dopaminergic PC12 cells. PC12 cells were treated with NGF (2 ng/mL) alone or in combination with PACA at the concentrations of 5, 10, 20 μM for 72 hours. The cells were stained by a neurite outgrowth kit, and subsequently analyzed for neurites (>20 μm) under a fluorescence microscope. […] Following the treatment with PACA and NGF, alone or in combination, PC12 cells were analyzed by Western blotting for the expression of neuronal biomarkers (i.g., β3-tubulin, MAP2 and GAP-43).

The test system of series [2] is PC12 cells. Briefly: 6-OHDA-induced neurotoxicity in PC12 cells, MTT cell viability. The series is classed as cell-based, rat. Conditions: 6-OHDA with or without PACA, 24 hours. How it is done:
Neurotoxin 6-hydroxydopamine (6-OHDA) is widely used to induce the cell model of human Parkinsonism. PC12 cells were treated with 6-OHDA with or without PACA for 24-hours, the cell viability was assessed by the colorimetric MTT assay. The relative cell viability was plotted against the concentrations of PACA. On the other hand, primary midbrain neurons were isolated from 17-day-old Sprague Dawley (SD) rat embryos. The midbrain neurons were treated with 6-OHDA with or without PACA for 12-hours, the cell viability was assessed by the colorimetric MTT assay. Alternatively, the neurons were stained with 5 μM of Hoechst 33342 and 1 μM of PI in the differentiation medium at 37° C. for 30 min. The images were captured on a Zeiss fluorescence microscope. (A) MTT assay of the cell viability in PC 12 cells. […] PI-positive and Hoechst 33342-stained neurons were counted under a fluorescence microscope. […]
Neurotoxin 6-hydroxydopamine (6-OHDA) is widely used to induce the cell model of human Parkinsonism. PC12 cells were treated with 6-OHDA with or without PACA for 24-hours, the cell viability was assessed by the colorimetric MTT assay. […] The midbrain neurons were treated with 6-OHDA with or without PACA for 12-hours, the cell viability was assessed by the colorimetric MTT assay. […] The images were captured on a Zeiss fluorescence microscope.

Series [3] can be described thus: Pharmacokinetic analysis of PACA after oral administration, plasma and brain, LC-MS/MS MRM. The series is classed as in vivo, Sprague Dawley rats. On the procedure:
(A) HPLC-MS/MS detection of PACA. (B) Determination of PACA in mouse plasma. (C) Determination of PACA in mouse brain tissues. PACA (30 mg/kg) was orally administered into mice. Blood samples and brain tissues were collected after different times (0, 0.5, 1, 2, 3, 6, 9, 12 or 24 h). PACA was determined by liquid chromatography-mass spectrometric multiple reaction monitoring-based strategy.
Nine male Sprague Dawley rats with a body weight of 240-280 g were purchased from Laboratory Animal Unit, HKU. The animals were housed in a qualified facility run on a 12-hour light and dark cycle. The animals were allowed unrestricted access to food and water. The protocol for the animal studies was approved by Li Ka Shing Faculty of Medicine, University of Hong Kong. The rats were administered with PACA (30 mg/kg) in 50% propanediol in saline by oral gavage whereas the control animal received vehicle only. The rats were anesthetized by isoflurane at the time points of 0, 0.5, 1, 2, 3, 6, 9, 12 or 24 h. Blood samples were collected by cardiac puncture using pre-heparinized syringes and immediately transferred into the tubes containing acetonitrile for preventing esterase metabolism. Blood samples were centrifuged at 5700 rpm for 10 minutes at 4° C. to recover plasma. Brain tissues were excised after the removal of blood vessels, blotted dry with clean paper towels, and weighed. All samples were stored at −80° C. before use. HPLC separation was performed on a Phenomenex Synergi hydro-RP C18 reversed phase column (150 mm×4.6 mm, 4 m) (Torrance, Calif., USA) under the control of Agilent HLPC 1100 system (Santa Clara, Calif., USA). Gradient was set using mobile phase: A, water with 0.05% (v/v) formic acid, B, acetonitrile with 0.05% (v/v) formic acid as follows: 0-2.5 min, 40-50% B; 2.5-5.5 min, 50-80% B; 5.5-11.5 min, 80% B; 11.5-12 min, 80-40% B, 12-15 min, 40% B. Flow rate was constant at 0.7 mL/min. The column temperature was maintained at 30° C. Sample volume for injection was 20 μL. […] Multiple-reaction monitoring (MRM) detection was used for the quantitation of all analytes.

As for `C#CCNC(=O)/C=C/c1ccc(O)c(O)c1` [PACA, (E)-3-(3,4-dihydroxyphenyl)-N-(prop-2-yn-1-yl)acrylamide], the “neurite outgrowth by compound alone” value in the series with PC12 cells [1] (PACA 20 μM alone) is “did not induce neurite outgrowth”. Also, the “increase in number of neurite-bearing cells relative to NGF alone” value with PC12 cells [1] (PACA 20 μM and NGF 2 ng/mL in combination) is given as about 6 fold. The “potentiation of NGF-induced neurite outgrowth” value with PC12 cells [1] (PACA 5, 10, 20 μM with NGF 2 ng/mL, neurites >20 μm, compared with NGF alone) is recorded as “significantly potentiated NGF-induced neurite outgrowth in a concentration-dependent manner”. Moreover, the “6-OHDA neurotoxicity in PC12 cells” value in the series with PC12 cells [2] is on record as “attenuated 6-hydroxydopamine (6-OHDA) neurotoxicity”. The “bioavailability in plasma and brain tissues” value in series [3] (after oral administration) was “rapidly bioavailable in plasma and brain tissues”. In series [3] (oral administration, 30 mg/kg), the “time to peak concentration in blood” value is at most 60 min and the “time to peak concentration in brain tissues” value was at most 60 min.
